Test results published in BindingDB's records for doi:10.1021/acs.biochem.5b00431 (University of California Irvine, 2015).

Biological target: T1, Nitric oxide synthase oxygenase (Bacillus subtilis (strain 168), UniProt O34453)
T1 sequence (O34453 whole entry): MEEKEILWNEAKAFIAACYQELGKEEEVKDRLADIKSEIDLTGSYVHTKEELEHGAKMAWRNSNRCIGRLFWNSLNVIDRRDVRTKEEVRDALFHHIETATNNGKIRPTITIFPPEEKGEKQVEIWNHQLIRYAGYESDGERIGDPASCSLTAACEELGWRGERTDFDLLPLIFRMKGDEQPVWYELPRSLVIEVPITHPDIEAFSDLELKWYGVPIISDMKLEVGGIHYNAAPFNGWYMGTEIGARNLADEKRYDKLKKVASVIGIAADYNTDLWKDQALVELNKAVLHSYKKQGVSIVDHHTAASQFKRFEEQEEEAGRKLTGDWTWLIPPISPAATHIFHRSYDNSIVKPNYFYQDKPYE
Assay: Imidazole Spin Shift Assay

SMILES	Kd
CNCCN(C)c1cncc(CCc2cc(C)cc(N)n2)c1 [4-methyl-6-[2-(5-{methyl[2-(methylamino)ethyl]amino}pyridin-3-yl)ethyl]pyridin-2-amine (14)]	57.6 µM
Cc1cc(N)nc(CCc2ccc(CCCN)c(CCc3cc(C)cc(N)n3)c2)c1	8.61 µM
N=C(Nc1cccc(CCc2cccc(NC(=N)c3cccs3)c2)c1)c1cccs1 [N-(3-{2-[3-(thiophene-2-imidamido)phenyl]ethyl}phenyl)thiophene-2-carboximidamide (19)]	99 µM
Cc1cc(N)nc(CCc2cncc(CCc3cc(C)nc(N)c3)c2)c1 [6-(2-{5-[2-(2-amino-6-methylpyridin-4-yl)ethyl]pyridin-3-yl}ethyl)-4-methylpyridin-2-amine]	5.03 µM
CNCCN(C)c1cccc(CCc2cc(C)cc(N)n2)c1 [4-methyl-6-[2-(3-{methyl[2-(methylamino)ethyl]amino}phenyl)ethyl]pyridin-2-amine (13)]	50.5 µM
Cc1cc(N)nc(CCc2cc(C#N)cc(CCc3cc(C)cc(N)n3)c2)c1	4.47 µM
N=C(Nc1cccc(COC[C@H]2C[C@H](OCc3cccc(NC(=N)c4cccs4)c3)CN2)c1)c1cccs1 [N-[3-({[(3S,5R)-5-({[3-(thiophene-2-imidamido)phenyl]methoxy}methyl)pyrrolidin-3-yl]oxy}methyl)phenyl]-2H-1λ⁴-thiophene-2-carboximidamide (28)]	7.73 µM
NC(=Nc1cccc(OCCOc2cccc(N=C(N)c3cccs3)c2)c1)c1cccs1 [N-(3-{2-[3-(thiophene-2-imidamido)phenoxy]ethoxy}phenyl)thiophene-2-carboximidamide (26)]	127 µM
N=C(Nc1cccc(COC[C@@H]2C[C@H](OCc3cccc(NC(=N)c4cccs4)c3)CN2)c1)c1cccs1 [N-[3-({[(3S,5S)-5-({[3-(thiophene-2-imidamido)phenyl]methoxy}methyl)pyrrolidin-3-yl]oxy}methyl)phenyl]-2H-1λ⁴-thiophene-2-carboximidamide (25)]	11 µM
N=C(Nc1cccc(CNC[C@@H]2CCCN2)c1)c1cccs1 [N-[3-({[(2S)-pyrrolidin-2-ylmethyl]amino}methyl)phenyl]thiophene-2-carboximidamide (20)]	17.8 µM
Cc1cc(N)nc(CCc2cccc([C@H](N)Cc3cc(C)cc(N)n3)c2)c1	25.6 µM
CNCCN(c1cc(F)cc(CCc2cc(C)cc(N)n2)c1)C1CC1 [6-[2-(3-{cyclopropyl[2-(methylamino)ethyl]amino}-5-fluorophenyl)ethyl]-4-methylpyridin-2-amine (18)]	62.1 µM
